Assay results from the SangsterLogP compilation.

Experiment: method code SF-AS, from DOI: 10.1002/zfch.19860260715
Conditions: pH 7.4

logD	Structure (SMILES)
0.11	CC(=O)NNC(=O)Nc1ccc(N(C)C)cc1
2.09	CC(=O)NNC(=O)Nc1ccc(Oc2ccccc2)cc1
0.37	CC(=O)NNC(=O)Nc1ccc(C#N)cc1
0.77	CC(=O)NNC(=O)Nc1cccc(C)c1
0.55	CCOc1ccc(NC(=O)NNC(C)=O)cc1
0.06	COc1ccc(NC(=O)NNC(C)=O)cc1
0.76	CC(=O)NNC(=O)Nc1ccc(C)cc1
1.63	CC(=O)NNC(=O)Nc1cccc(C(F)(F)F)c1
2.14	CC(=O)NNC(=O)Nc1ccc(C(C)(C)C)cc1
0.39	COc1cccc(NC(=O)NNC(C)=O)c1
